Where “and” joins values, the source holds several entries; their conditions need not be identical. Equal entries are not always repeated.
How the values were obtained:
[1] = tested on: rabbit anti-cAMP sera (antigen:antibody binding); test: Scintillation proximity radioimmunoassay for cAMP: standard curves with lysis reagents and sequestrants; conditions: for [125I]cAMP bound to SPA beads, counts per minute: no sequestrant; for restoration of antigen:antibody binding by different sequestrants: 2.5% (w/v) sequestrant, standards in 1% DTAB
Method: All assays were carried out in microtitre plates compatible with a microtitre plate beta scintillation counter. Standards (50 μl; 0.2-12.8 pmol/well), antisera (50 μl; at 1:11000 dilution), tracer (50 ul; 10000-20000 cpm) are added to anti-rabbit coated SPA beads (50 μl; 20 mg/ml). Non-specific binding was determined in the absence of specific rabbit antisera. SPA anti-rabbit reagent is placed onto a magnetic stirrer to ensure a homogeneous suspension before pipetting. All wells contained a total volume of 200 μl. The plates were sealed and incubated at room temperature (15-30° C.) for 15-20 hours. The amount of [^125I]cAMP bound to the SPA fluomicrospheres was determined by counting in a microtitre plate beta scintillation counter for 2 minutes.
Experiments were set up with:— • a) Working standards (4-256 pmol/ml; 0.2-12.8 pmol/well) were prepared in assay buffer (0.05M sodium acetate buffer containing 0.01% sodium azide) only (control) or assay buffer containing lysis reagent (e.g. DTAB, CPC or SDS; see experiment 1) at various concentrations. • b) Rabbit anti-cAMP sera prepared in assay buffer only (control) or assay buffer containing sequestrating agent at various concentrations depending on the experiment. • c) Radioactive tracer: adenosine 3′ 5′-cyclic phosphoric acid 2′-O-succinyl-3-[^125I] iodotyrosine methyl ester prepared in assay buffer only (control) or assay buffer containing sequestrating agent at various concentrations depending on the experiment. • d) Donkey anti-rabbit IgG coupled to scintillation proximity fluomicrospheres prepared in assay buffer only (control) or assay buffer containing sequestrating agent at various concentrations depending on the experiment. Experiment 1: Inhibition of Antigen and Antibody Binding by Several Lysis Reagents Method
In these experiments, standard curves were prepared for cAMP using the SPA immunoassay technique, described above, where working standards of cAMP were prepared in several lysis reagents at 1% (w/v) or 2% (w/v) final concentration. The detergents investigated included dodecyl trimethyl ammonium bromide (DTAB; Sigma Chemical Co. D8638), benzethonium chloride (BZC; Aldrich; B470-8), cetyl pyridinium chloride (CPC; Sigma Chemical Co; C9002), sodium dodecyl sulphate (SDS, Sigma chemical Co; L4509) and N-dodecyl-N,N-dimethyl-3-ammonio-1-propanesulphonate (DDAPS; Sigma Chemical Co.; D4516).
In these experiments, standard curves for cAMP were prepared using the SPA immunoassay technique described above, where working standards of cAMP were prepared in 1% (w/v), 1.5% (w/v) or 2% (w/v) lysis reagents (DTAB, SDS or CPC). The control consisted of no lysis reagent or cyclodextrin added. The effect including 2.5% (w/v) alpha-cyclodextrin (alpha-CD) (Sigma Chemical Co.; C4642) on antigen:antibody binding was investigated. Here, tracer, antisera and SPA beads were prepared in assay buffer containing 2.5% (w/v) alpha-CD. A second control tested the effect of 2.5% (w/v) alpha-CD on the standard curve without addition of lysis reagent.
In this experiment, standard curves for cAMP were prepared using the SPA radioimmunoassay where working standards of cAMP were prepared in 1% (w/v) DTAB. The effect of including 1% (w/v), 2% (w/v), 2.5% (w/v) and 5% (w/v) alpha-cyclodextrin on antigen:antibody binding was investigated. Here, tracer, antisera and SPA beads were prepared in assay buffer containing alpha-CD at the above concentrations. The control consisted of no lysis or cyclodextrin added to the assay.
In this experiment, standard curves for cAMP were prepared using the SPA immunoassay technique where working standards were prepared 1% (wt) lysis reagent (DTAB). The effect of including 2.5% (w/v) alpha-cyclodextrin (CD) 2.5% (w/v) beta-cyclodextrin (beta-CD) (Sigma is Chemical Co.; C4767) and 2.5% (w/v) gamma-cyclodextrin (gamma-CD) (Sigma Chemical Co.; 4892) on antigen:antibody binding was investigated. […]

[2] = tested on: Chinese hamster ovary (CHO) cells; test: "Total" cellular cAMP from forskolin-stimulated CHO cells; assay type: cell-based; conditions: 100 μM forskolin, 20 minutes
Method: Chinese hamster ovary (CHO) cells were cultured in HAM's media containing 10% (v/v) foetal calf serum (FCS). For cAMP assays, cells were seeded into clear-bottomed 96-well tissue-culture plates with opaque walls (tissue-culture grade; see materials) in HAM's media, (see experiment 5) at 40 μl/well (between 10^4 and 10^6 cells/well). Cells were cultured overnight at 37° C. in a 95% air/5% CO2 atmosphere. The next day, sequestration and lysis buffers (2.5% alpha-cyclodextrin, 1% and 10% DTAB in assay buffer) were prepared. Antisera (at 1/11000 dilution), tracer (10000-20000 cpm) and SPA beads (20 mg/ml) were reconstituted with assay buffer containing 2.5% (w/v) alpha-cyclodextrin. […]
DTAB (100 μl, 1% w/v in assay buffer) was added to the non-specific binding wells. […] Following incubation, the plate was transferred directly to a TopCount™ scintillation counter and radioactivity detected. Non-specific binding was determined in the absence of specific rabbit antisera. Cyclic AMP levels were determined using log/linear analysis with reference to the standard curve. […]
Chinese hamster ovary cells were seeded at a density of 100,000 cells per well and cultured overnight to confluence in Viewplates as described under the methods section. […] The cell culture supernatant was not removed before the cell lysis step. cAMP levels were measured with the SPA radioimmunoassay procedure.

[3] = 1% lysis reagent, 0.2 pmol cAMP/well
[4] = 1% lysis reagent, 0.4 pmol cAMP/well
[5] = 1% lysis reagent, 0.8 pmol cAMP/well
[6] = 1% lysis reagent, 1.6 pmol cAMP/well
[7] = 1% lysis reagent, 3.2 pmol cAMP/well
[8] = 1% lysis reagent, 6.4 pmol cAMP/well
[9] = 1% lysis reagent, 12.8 pmol cAMP/well
[10] = 1% lysis reagent, NSB (no specific antisera)
[11] = 1% lysis reagent, Zero standard
[12] = 2% lysis reagent, 0.2 pmol cAMP/well
[13] = 2% lysis reagent, 0.4 pmol cAMP/well
[14] = 2% lysis reagent, 0.8 pmol cAMP/well
[15] = 2% lysis reagent, 1.6 pmol cAMP/well
[16] = 2% lysis reagent, 3.2 pmol cAMP/well
[17] = 2% lysis reagent, 6.4 pmol cAMP/well
[18] = 2% lysis reagent, 12.8 pmol cAMP/well
[19] = 2% lysis reagent, NSB (no specific antisera)
[20] = 2% lysis reagent, Zero standard

Row | SMILES | [125I]cAMP bound to SPA beads, counts per minute [1, 3] | [125I]cAMP bound to SPA beads, counts per minute [1, 4] | [125I]cAMP bound to SPA beads, counts per minute [1, 5] | [125I]cAMP bound to SPA beads, counts per minute [1, 6] | [125I]cAMP bound to SPA beads, counts per minute [1, 7] | [125I]cAMP bound to SPA beads, counts per minute [1, 8] | [125I]cAMP bound to SPA beads, counts per minute [1, 9] | [125I]cAMP bound to SPA beads, counts per minute [1, 10] | [125I]cAMP bound to SPA beads, counts per minute [1, 11] | [125I]cAMP bound to SPA beads, counts per minute [1, 12] | [125I]cAMP bound to SPA beads, counts per minute [1, 13] | [125I]cAMP bound to SPA beads, counts per minute [1, 14] | [125I]cAMP bound to SPA beads, counts per minute [1, 15] | [125I]cAMP bound to SPA beads, counts per minute [1, 16] | [125I]cAMP bound to SPA beads, counts per minute [1, 17] | [125I]cAMP bound to SPA beads, counts per minute [1, 18] | [125I]cAMP bound to SPA beads, counts per minute [1, 19] | [125I]cAMP bound to SPA beads, counts per minute [1, 20] | restoration of antigen:antibody binding by different sequestrants [1] | also measured
1 | CC(C)(C)CC(C)(C)c1ccc(OCCOCC[N+](C)(C)Cc2ccccc2)cc1 [BZC, benzethonium chloride] | 644 cpm | 501 cpm | 473 cpm | 426 cpm | 261 cpm | 16 cpm | 6 cpm | 111 cpm | 951 cpm | 308 cpm | 338 cpm | 222 cpm | 156 cpm | 143 cpm | 96 cpm | 70 cpm | 117 cpm | 486 cpm | – | –
2 | CCCCCCCCCCCCOS(=O)(=O)[O-].[Na+] [SDS, sodium dodecyl sulphate] | – | – | – | – | – | 640 cpm | 394 cpm | 118 cpm | 1149 cpm | – | – | – | – | – | – | – | – | – | – | [125I]cAMP bound to SPA beads, counts per minute ([1]; 1% lysis reagent, 0.2 pmol cAMP/well, sulphate): 1052 cpm and 1128 cpm; [125I]cAMP bound to SPA beads, counts per minute ([1]; 1% lysis reagent, 0.4 pmol cAMP/well, sulphate): 973 cpm and 1052 cpm; [125I]cAMP bound to SPA beads, counts per minute ([1]; 1% lysis reagent, 0.8 pmol cAMP/well, sulphate): 913 cpm and 973 cpm; [125I]cAMP bound to SPA beads, counts per minute ([1]; 1% lysis reagent, 1.6 pmol cAMP/well, sulphate): 859 cpm and 913 cpm; [125I]cAMP bound to SPA beads, counts per minute ([1]; 1% lysis reagent, 3.2 pmol cAMP/well, sulphate): 837 cpm and 859 cpm
3 | OC[C@H]1O[C@@H]2O[C@H]3[C@H](O)[C@@H](O)[C@@H](O[C@H]4[C@H](O)[C@@H](O)[C@@H](O[C@H]5[C@H](O)[C@@H](O)[C@@H](O[C@H]6[C@H](O)[C@@H](O)[C@@H](O[C@H]7[C@H](O)[C@@H](O)[C@@H](O[C@H]8[C@H](O)[C@@H](O)[C@@H](O[C@H]9[C@H](O)[C@@H](O)[C@@H](O[C@H]1[C@H](O)[C@H]2O)O[C@@H]9CO)O[C@@H]8CO)O[C@@H]7CO)O[C@@H]6CO)O[C@@H]5CO)O[C@@H]4CO)O[C@@H]3CO [gamma cyclodextrin, gamma-cyclodextrin] | – | – | – | – | – | – | – | – | – | – | – | – | – | – | – | – | – | – | restored binding to an optimal degree | –
4 | C=C[C@@]1(C)CC(=O)[C@]2(O)[C@@]3(C)[C@@H](O)CCC(C)(C)[C@@H]3[C@H](O)[C@H](OC(C)=O)[C@@]2(C)O1 [forskolin, Forskolin] | – | – | – | – | – | – | – | – | – | – | – | – | – | – | – | – | – | – | – | Total cellular cAMP levels [2]: over 170 pmol/10^6 cells
5 | OC[C@H]1O[C@@H]2O[C@H]3[C@H](O)[C@@H](O)[C@@H](O[C@H]4[C@H](O)[C@@H](O)[C@@H](O[C@H]5[C@H](O)[C@@H](O)[C@@H](O[C@H]6[C@H](O)[C@@H](O)[C@@H](O[C@H]7[C@H](O)[C@@H](O)[C@@H](O[C@H]8[C@H](O)[C@@H](O)[C@@H](O[C@H]1[C@H](O)[C@H]2O)O[C@@H]8CO)O[C@@H]7CO)O[C@@H]6CO)O[C@@H]5CO)O[C@@H]4CO)O[C@@H]3CO [beta-cyclodextrin] | – | – | – | – | – | – | – | – | – | – | – | – | – | – | – | – | – | – | less effective | –
6 | CCCCCCCCCCCC[N+](C)(C)CCCS(=O)(=O)[O-] [DDAPS, N-dodecyl-N,N-dimethyl-3-ammonio-1-propanesulphonate] | 969 cpm and 762 cpm | 849 cpm and 719 cpm | 725 cpm and 689 cpm | 610 cpm and 559 cpm | 425 cpm and 446 cpm | 311 cpm and 326 cpm | 204 cpm and 173 cpm | 181 cpm and 137 cpm | 1109 cpm and 906 cpm | 416 cpm and 423 cpm | 426 cpm and 370 cpm | 429 cpm and 350 cpm | 339 cpm and 290 cpm | 303 cpm and 252 cpm | 215 cpm and 194 cpm | 109 cpm and 115 cpm | 129 cpm and 130 cpm | 579 cpm and 510 cpm | – | –

Reference: patent US6900019B1, “In-situ cell extraction and assay method” (Amersham Biosciences UK Limited, priority 1997, dated 2005)
